From patent US10377753B2, “Substituted 4-azaindoles and their use as GluN2B receptor modulators” (Janssen Pharmaceutica NV, priority 2015, dated 2019)
pIC50: −log10 of the molar value. Where a name gives a salt, the structure may show the parent alone.

Biological target: cloned human NR1/NR2B ion channels (Homo sapiens (Human), UniProt Q05586+Q13224)
Test: HNR2BC: effects of test articles on cloned human NR1/NR2B ion channels expressed in mammalian cells (FLIPR calcium flux)
Type: cell-based
Details: cloned human NR1/NR2B ion channels, Table 5
Method in brief: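 In a stable Tet-On-induced cell line expressing human GluN1/GluN2B, Calcium 5-loaded cells were preincubated 5 min with compound, then stimulated 5 min with glutamate at ~EC80 plus 10 μM glycine, in pH 7.4 HEPES buffer. FLIPR calcium fluorescence was normalized to control wells.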

Sequence of cloned human NR1/NR2B ion channels (Q13224 27-1484, other chains not shown): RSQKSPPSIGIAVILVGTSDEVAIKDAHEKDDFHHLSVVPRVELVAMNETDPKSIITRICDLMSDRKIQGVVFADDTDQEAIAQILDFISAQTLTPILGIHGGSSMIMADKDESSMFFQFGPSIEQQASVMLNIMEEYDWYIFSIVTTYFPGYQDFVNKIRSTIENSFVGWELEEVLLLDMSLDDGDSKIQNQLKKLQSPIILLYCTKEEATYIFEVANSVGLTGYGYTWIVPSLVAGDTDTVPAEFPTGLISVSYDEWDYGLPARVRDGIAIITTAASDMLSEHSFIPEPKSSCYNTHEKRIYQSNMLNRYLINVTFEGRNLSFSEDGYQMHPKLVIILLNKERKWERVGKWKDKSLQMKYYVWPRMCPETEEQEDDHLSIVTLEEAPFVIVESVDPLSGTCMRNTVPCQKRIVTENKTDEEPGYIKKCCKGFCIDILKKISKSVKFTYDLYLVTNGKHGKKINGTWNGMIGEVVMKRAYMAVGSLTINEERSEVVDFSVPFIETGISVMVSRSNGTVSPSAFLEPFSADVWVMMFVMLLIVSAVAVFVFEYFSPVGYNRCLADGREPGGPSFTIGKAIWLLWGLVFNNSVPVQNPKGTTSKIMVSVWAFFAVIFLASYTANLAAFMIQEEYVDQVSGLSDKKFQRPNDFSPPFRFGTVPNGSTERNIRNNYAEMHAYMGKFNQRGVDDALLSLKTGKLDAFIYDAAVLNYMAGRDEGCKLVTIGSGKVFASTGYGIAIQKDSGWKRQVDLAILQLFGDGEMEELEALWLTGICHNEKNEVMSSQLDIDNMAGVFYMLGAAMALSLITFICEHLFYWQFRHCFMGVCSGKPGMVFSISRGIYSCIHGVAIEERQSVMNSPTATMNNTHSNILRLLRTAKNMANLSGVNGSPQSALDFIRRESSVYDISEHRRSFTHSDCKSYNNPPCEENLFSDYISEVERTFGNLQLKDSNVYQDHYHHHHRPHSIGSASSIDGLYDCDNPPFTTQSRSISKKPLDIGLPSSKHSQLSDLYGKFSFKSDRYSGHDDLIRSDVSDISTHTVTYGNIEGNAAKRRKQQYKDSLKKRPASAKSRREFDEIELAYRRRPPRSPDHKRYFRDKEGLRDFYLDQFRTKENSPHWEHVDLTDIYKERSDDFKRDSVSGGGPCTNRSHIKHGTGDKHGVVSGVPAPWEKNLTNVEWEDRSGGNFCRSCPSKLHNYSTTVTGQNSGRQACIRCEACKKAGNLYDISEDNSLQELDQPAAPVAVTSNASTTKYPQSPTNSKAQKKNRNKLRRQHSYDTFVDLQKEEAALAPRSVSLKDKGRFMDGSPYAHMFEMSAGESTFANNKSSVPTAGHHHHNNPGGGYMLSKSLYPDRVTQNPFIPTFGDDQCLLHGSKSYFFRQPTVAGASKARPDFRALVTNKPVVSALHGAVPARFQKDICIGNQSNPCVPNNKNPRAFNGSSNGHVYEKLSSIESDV

Row | SMILES | pIC50
1 | O=C(Cn1ccc2ncc(-c3ccc(F)c(F)c3)cc21)N1CCCC1 [Example 367, 2-[6-(3,4-Difluorophenyl)pyrrolo[3,2-b]pyridin-1-yl]-1-pyrrolidin-1-yl-ethanone] | 7.30
2 | Cc1csc(-c2cnc3ccn(CC(=O)N4CC(F)(F)C4)c3c2)c1 [Example 368, 1-(3,3-Difluoroazetidin-1-yl)-2-[6-(4-methyl-2-thienyl)pyrrolo[3,2-b]pyridin-1-yl]ethanone] | 7.60
3 | Cc1csc(-c2cnc3ccn(CC(=O)N4CCCC4)c3c2)c1 [Example 369, 2-[6-(4-Methyl-2-thienyl)pyrrolo[3,2-b]pyridin-1-yl]-1-pyrrolidin-1-yl-ethanone] | 7.70
4 | Cc1csc(-c2cnc3ccn(CC(=O)N4CC(F)C4)c3c2)c1 [Example 370, 1-(3-Fluoroazetidin-1-yl)-2-[6-(4-methyl-2-thienyl)pyrrolo[3,2-b]pyridin-1-yl]ethanone] | 7.50
5 | O=C(Cn1ccc2ncc(-c3cc(F)c(F)c(F)c3)cc21)N1CC(F)C1 [Example 371, 1-(3-Fluoroazetidin-1-yl)-2-[6-(3,4,5-trifluorophenyl)pyrrolo[3,2-b]pyridin-1-yl]ethanone] | 7.80
6 | O=C(Cn1ccc2ncc(-c3ccc(Cl)s3)cc21)N1CC(F)C1 [Example 372, 2-[6-(5-Chloro-2-thienyl)pyrrolo[3,2-b]pyridin-1-yl]-1-(3-fluoroazetidin-1-yl)ethanone] | 7.80
7 | O=C(Cn1ccc2ncc(-c3ccc(Cl)s3)cc21)N1CCC1 [Example 373, 1-(Azetidin-1-yl)-2-[6-(5-chloro-2-thienyl)pyrrolo[3,2-b]pyridin-1-yl]ethanone] | 7.70
8 | O=C(Cn1cc(Cl)c2ncc(-c3ccc(F)c(F)c3F)cc21)N1CC(F)C1 [Example 374, 2-[3-Chloro-6-(2,3,4-trifluorophenyl)pyrrolo[3,2-b]pyridin-1-yl]-1-(3-fluoroazetidin-1-yl)ethanone] | 7.70
9 | CN(C)C(=O)Cn1ccc2ncc(-c3cc(F)c(F)c(F)c3)cc21 [Example 375, N,N-Dimethyl-2-[6-(3,4,5-trifluorophenyl)pyrrolo[3,2-b]pyridin-1-yl]acetamide] | 7.90
10 | CN(C)C(=O)Cn1ccc2ncc(-c3cc(F)cc(F)c3)cc21 [Example 376, 2-[6-(3,5-Difluorophenyl)pyrrolo[3,2-b]pyridin-1-yl]-N,N-dimethyl-acetamide] | 7.70
11 | CN(C)C(=O)Cn1ccc2ncc(-c3cccc(C(F)F)c3)cc21 [Example 377, 2-[6-[3-(Difluoromethyl)phenyl]pyrrolo[3,2-b]pyridin-1-yl]-N,N-dimethyl-acetamide] | 8.00
12 | Cc1ccc(-c2cnc3ccn(CC(=O)N4CCC4)c3c2)s1 [Example 380, 1-(Azetidin-1-yl)-2-[6-(5-methyl-2-thienyl)pyrrolo[3,2-b]pyridin-1-yl]ethanone] | 8.00
13 | O=C(Cn1cc(Cl)c2ncc(-c3ccc(Cl)s3)cc21)N1CCC1 [Example 381, 1-(Azetidin-1-yl)-2-[3-chloro-6-(5-chloro-2-thienyl)pyrrolo[3,2-b]pyridin-1-yl]ethanone] | 7.80
14 | O=C(Cn1cc(F)c2ncc(-c3ccc(F)c(F)c3)cc21)N1CCC1 [Example 382, 1-(Azetidin-1-yl)-2-[6-(3,4-difluorophenyl)-3-fluoro-pyrrolo[3,2-b]pyridin-1-yl]ethanone] | 7.80
15 | O=C(Cn1cc(F)c2ncc(-c3cc(F)c(F)c(F)c3)cc21)N1CCC1 [Example 383, 1-(Azetidin-1-yl)-2-[3-fluoro-6-(3,4,5-trifluorophenyl)pyrrolo[3,2-b]pyridin-1-yl]ethanone] | 7.80
16 | O=C(Cn1cc(Cl)c2ncc(-c3ccc(F)cc3)cc21)C1CC1 [Example 384, 2-[3-Chloro-6-(4-fluorophenyl)pyrrolo[3,2-b]pyridin-1-yl]-1-cyclopropyl-ethanone] | 7.70
17 | O=C(Cn1ccc2ncc(-c3ccsc3)cc21)N1CCC1 [Example 385, 1-(Azetidin-1-yl)-2-[6-(3-thienyl)pyrrolo[3,2-b]pyridin-1-yl]ethanone trifluoroacetate salt] | 7.70

Row | SMILES | pIC50
18 | CN(C)C(=O)Cn1cc(F)c2ncc(-c3cccs3)cc21 [Example 387, 2-[3-Fluoro-6-(2-thienyl)pyrrolo[3,2-b]pyridin-1-yl]-N,N-dimethyl-acetamide] | 7.20
19 | CCc1ccc(-c2cnc3ccn(CC(=O)N(C)C)c3c2)s1 [Example 388, 2-[6-(5-Ethyl-2-thienyl)pyrrolo[3,2-b]pyridin-1-yl]-N,N-dimethyl-acetamide trifluoroacetate salt] | 6.10
20 | O=C(Cn1cc(F)c2ncc(-c3cccs3)cc21)N1CCC1 [Example 389, 1-(Azetidin-1-yl)-2-[3-fluoro-6-(2-thienyl)pyrrolo[3,2-b]pyridin-1-yl]ethanone trifluoroacetate salt] | 6.80
21 | Cc1ccc(-c2cnc3c(F)cn(CC(=O)N(C)C)c3c2)s1 [Example 390, 2-[3-Fluoro-6-(5-methyl-2-thienyl)pyrrolo[3,2-b]pyridin-1-yl]-N,N-dimethyl-acetamide] | 6.50
22 | CN(C)C(=O)Cn1ccc2ncc(-c3cc(Cl)cs3)cc21 [Example 391, 2-[6-(4-Chloro-2-thienyl)pyrrolo[3,2-b]pyridin-1-yl]-N,N-dimethyl-acetamide trifluoroacetate salt] | 7.30
23 | CCc1ccc(-c2cnc3ccn(CC(=O)N4CCC4)c3c2)s1 [Example 392, 1-(Azetidin-1-yl)-2-[6-(5-ethyl-2-thienyl)pyrrolo[3,2-b]pyridin-1-yl]ethanone trifluoroacetate salt] | 7.20
24 | CCc1ccc(-c2cnc3c(F)cn(CC(=O)N(C)C)c3c2)s1 [Example 393, 2-[6-(5-Ethyl-2-thienyl)-3-fluoro-pyrrolo[3,2-b]pyridin-1-yl]-N,N-dimethyl-acetamide] | 6.90
25 | O=C(Cn1ccc2ncc(-c3cc(Cl)cs3)cc21)N1CCC1 [Example 394, 1-(Azetidin-1-yl)-2-[6-(4-chloro-2-thienyl)pyrrolo[3,2-b]pyridin-1-yl]ethanone trifluoroacetate salt] | 6.80
26 | O=C(Cn1cc(F)c2ncc(-c3cccs3)cc21)N1CC(F)C1 [Example 395, 1-(3-Fluoroazetidin-1-yl)-2-[3-fluoro-6-(2-thienyl)pyrrolo[3,2-b]pyridin-1-yl]ethanone trifluoroacetate salt] | 7.30
27 | CN(C)C(=O)Cn1cc(F)c2ncc(-c3cc(Cl)cs3)cc21 [Example 396, 2-[6-(4-Chloro-2-thienyl)-3-fluoro-pyrrolo[3,2-b]pyridin-1-yl]-N,N-dimethyl-acetamide] | 6.30
28 | O=C(Cn1cc(F)c2ncc(-c3cc(Cl)cs3)cc21)N1CCC1 [Example 397, 1-(Azetidin-1-yl)-2-[6-(4-chloro-2-thienyl)-3-fluoro-pyrrolo[3,2-b]pyridin-1-yl]ethanone trifluoroacetate salt] | 7.30
29 | CCc1ccc(-c2cnc3c(F)cn(CC(=O)N4CC(F)C4)c3c2)s1 [Example 398, 2-[6-(5-Ethyl-2-thienyl)-3-fluoro-pyrrolo[3,2-b]pyridin-1-yl]-1-(3-fluoroazetidin-1-yl)ethanone trifluoroacetate salt] | 7.40
30 | O=C(Cn1ccc2ncc(-c3cccs3)cc21)N1CCC1 [Example 399, 1-(Azetidin-1-yl)-2-[6-(2-thienyl)pyrrolo[3,2-b]pyridin-1-yl]ethanone] | 6.80
31 | CN(C)C(=O)Cn1ccc2ncc(-c3cccs3)cc21 [Example 400, N,N-Dimethyl-2-[6-(2-thienyl)pyrrolo[3,2-b]pyridin-1-yl]acetamide] | 6.30
32 | CCc1ccc(-c2cnc3c(F)cn(CC(=O)N4CCC4)c3c2)s1 [Example 401, 1-(Azetidin-1-yl)-2-[6-(5-ethyl-2-thienyl)-3-fluoro-pyrrolo[3,2-b]pyridin-1-yl]ethanone] | 6.20
33 | Cc1ccc(-c2cnc3c(F)cn(CC(=O)N4CC(F)C4)c3c2)s1 [Example 402, 1-(3-Fluoroazetidin-1-yl)-2-[3-fluoro-6-(5-methyl-2-thienyl)pyrrolo[3,2-b]pyridin-1-yl]ethanone trifluoroacetate salt] | 6.60

Same assay, conditions: cloned human NR1/NR2B, Table 5

Row | SMILES | pIC50
34 | Cc1csc(-c2cnc3ccn(CC(=O)N4CCC4)c3c2)c1 [Example 359, 1-(Azetidin-1-yl)-2-[6-(4-methyl-2-thienyl)pyrrolo[3,2-b]pyridin-1-yl]ethanone trifluoroacetate salt] | 7.50
35 | Cc1cc(-c2cnc3c(Cl)cn(CC(=O)N4CCC4)c3c2)ccc1F [Example 360, 1-(Azetidin-1-yl)-2-[3-chloro-6-(4-fluoro-3-methyl-phenyl)pyrrolo[3,2-b]pyridin-1-yl]ethanone] | 7.50
36 | O=C(Cn1ccc2ncc(-c3ccc(F)c(F)c3)cc21)N1CC(F)(F)C1 [Example 361, 1-(3,3-Difluoroazetidin-1-yl)-2-[6-(3,4-difluorophenyl)pyrrolo[3,2-b]pyridin-1-yl]ethanone] | 7.60
37 | O=C(Cn1ccc2ncc(-c3cccc(C(F)(F)F)n3)cc21)N1CCC1 [Example 362, 1-(Azetidin-1-yl)-2-[6-[6-(trifluoromethyl)-2-pyridyl]pyrrolo[3,2-b]pyridin-1-yl]ethanone] | 7.50
38 | O=C(Cn1ccc2ncc(-c3cc(F)c(F)c(F)c3)cc21)N1CCC1 [Example 363, 1-(Azetidin-1-yl)-2-[6-(3,4,5-trifluorophenyl)pyrrolo[3,2-b]pyridin-1-yl]ethanone] | 7.10
39 | CC(C)C(=O)Cn1ccc2ncc(-c3cc(F)cc(F)c3)cc21 [Example 364, 1-[6-(3,5-Difluorophenyl)pyrrolo[3,2-b]pyridin-1-yl]-3-methyl-butan-2-one] | 7.70
40 | O=C(Cn1ccc2ncc(-c3ccc(F)cc3)cc21)C1CCC1 [Example 365, 1-Cyclobutyl-2-[6-(4-fluorophenyl)pyrrolo[3,2-b]pyridin-1-yl]ethanone] | 7.70
41 | CCc1cccc(-c2cnc3ccn(CC(=O)NC4CC4)c3c2)c1 [Example 366, N-Cyclopropyl-2-[6-(3-ethylphenyl)pyrrolo[3,2-b]pyridin-1-yl]acetamide] | 7.50
